Assay results as given in ChEMBL document CHEMBL1201862, “PubChem BioAssay data set” (2004).
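Following 48 hours of exposure in 96-well plates, responses at five concentrations were used to interpolate endpoints linearly. Here, GI50 denotes the concentration required for 50% inhibition of growth.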 Activity calls are given as the source filed them. Rule as the data show it: active = GI50 up to about 1.1 µM and inactive = higher.

Experiments:
Experiment in all cases: growth of human tumour cells (NCI), 48 h
DMS-273 = system: DMS-273
NCI-H522 = system: NCI-H522
LXFL 529 = system: LXFL 529
U-251 = system: U-251
SF-268 = system: SF-268
HL-60 = system: HL-60
KM12 = system: KM12
HCT-15 = system: HCT-15
ACHN = system: ACHN
IGROV-1 = system: IGROV-1
RXF 393 = system: RXF 393
DMS-114 = system: DMS-114
SR = system: SR
SK-OV-3 = system: SK-OV-3
TK-10 = system: TK-10
COLO 205 = system: COLO 205
M19-MEL = system: M19-MEL
SN12C = system: SN12C
OVCAR-4 = system: OVCAR-4
SK-MEL-28 = system: SK-MEL-28
RPMI-8226 = system: RPMI-8226
UO-31 = system: UO-31
CCRF-CEM = system: CCRF-CEM
Malme-3M = system: Malme-3M
K562 = system: K562
UACC-257 = system: UACC-257
A498 = system: A498
SNB-78 = system: SNB-78
SK-MEL-5 = system: SK-MEL-5
KM-20L2 = system: KM-20L2
SF-295 = system: SF-295
LOX IMVI = system: LOX IMVI
SNB-19 = system: SNB-19
NCI-H226 = system: NCI-H226
M14 = system: M14
HCC 2998 = system: HCC 2998
HT-29 = system: HT-29
HOP-62 = system: HOP-62
XF498 = system: XF498
NCI-H23 = system: NCI-H23
OVCAR-3 = system: OVCAR-3
NCI-H460 = system: NCI-H460
SW-620 = system: SW-620
UACC-62 = system: UACC-62
A549 = system: A549
786-0 = system: 786-0
MOLT-4 = system: MOLT-4
OVCAR-5 = system: OVCAR-5
HCT-116 = system: HCT-116
SF-539 = system: SF-539
CAKI-1 = system: CAKI-1
EKVX = system: EKVX
OVCAR-8 = system: OVCAR-8
DLD-1 = system: DLD-1
SK-MEL-2 = system: SK-MEL-2
HOP-92 = system: HOP-92

With `COC(=O)c1nn(-c2ccccc2)c(=O)cc1N=[N+]=[N-]` the GI50 (DMS-273) was > 100 µM (inactive), the GI50 (NCI-H522) was > 100 µM (inactive) and the GI50 (LXFL 529) was > 100 µM (inactive). The GI50 (U-251) was > 100 µM (inactive), the GI50 (SF-268) was > 100 µM (inactive) and the GI50 (HL-60) was > 100 µM (inactive). For the same molecule, the GI50 (KM12) was > 100 µM (inactive), the GI50 (HCT-15) was > 100 µM and the GI50 (ACHN) was > 100 µM (inactive). For the same molecule, the GI50 (IGROV-1) was > 100 µM (inactive), the GI50 (RXF 393) was > 100 µM (inactive) and the GI50 (DMS-114) was > 100 µM (inactive). The GI50 (SR) was > 100 µM (inactive), the GI50 (SK-OV-3) was > 100 µM (inactive) and the GI50 (TK-10) was > 100 µM (inactive). The GI50 (COLO 205) was 99.5 µM (inactive), the GI50 (M19-MEL) was > 100 µM (inactive) and the GI50 (SN12C) was > 100 µM (inactive). For the same molecule, the GI50 (OVCAR-4) was > 100 µM (inactive), the GI50 (SK-MEL-28) was > 100 µM (inactive) and the GI50 (RPMI-8226) was > 100 µM (inactive). The GI50 (UO-31) was > 100 µM (inactive), the GI50 (CCRF-CEM) was > 100 µM (inactive) and the GI50 (Malme-3M) was > 100 µM (inactive). The GI50 (K562) was > 100 µM (inactive), the GI50 (UACC-257) was > 100 µM (inactive) and the GI50 (A498) was 94 µM (inactive). The GI50 (SNB-78) was > 100 µM (inactive), the GI50 (SK-MEL-5) was > 100 µM (inactive) and the GI50 (KM-20L2) was > 100 µM (inactive). For the same molecule, the GI50 (SF-295) was > 100 µM (inactive), the GI50 (LOX IMVI) was > 100 µM (inactive) and the GI50 (SNB-19) was > 100 µM (inactive). For the same molecule, the GI50 (NCI-H226) was > 100 µM (inactive), the GI50 (M14) was > 100 µM (inactive) and the GI50 (HCC 2998) was > 100 µM (inactive). The GI50 (HT-29) was > 100 µM (inactive), the GI50 (HOP-62) was > 100 µM (inactive) and the GI50 (XF498) was > 100 µM (inactive). For the same molecule, the GI50 (NCI-H23) was > 100 µM (inactive), the GI50 (OVCAR-3) was > 100 µM (inactive) and the GI50 (NCI-H460) was > 100 µM (inactive). The GI50 (SW-620) was > 100 µM (inactive), the GI50 (UACC-62) was > 100 µM (inactive) and the GI50 (A549) was > 100 µM (inactive). The GI50 (786-0) was > 100 µM (inactive), the GI50 (MOLT-4) was > 100 µM (inactive) and the GI50 (OVCAR-5) was > 100 µM (inactive). For the same molecule, the GI50 (HCT-116) was > 100 µM (inactive), the GI50 (SF-539) was > 100 µM (inactive) and the GI50 (CAKI-1) was > 100 µM (inactive). The GI50 (EKVX) was > 100 µM (inactive) and the GI50 (OVCAR-8) was > 100 µM (inactive).

In the case of `Cc1nc2cc(N)c(F)cc2[nH]1`, the GI50 (DMS-273) is reported as > 100 µM (inactive), the GI50 (NCI-H522) is reported as > 100 µM (inactive) and the GI50 (LXFL 529) is reported as > 100 µM (inactive). The GI50 (U-251) was > 100 µM (inactive), the GI50 (SF-268) was > 100 µM (inactive) and the GI50 (HL-60) was > 100 µM (inactive). The GI50 (DLD-1) was > 100 µM (inactive), the GI50 (SK-MEL-2) was > 100 µM (inactive) and the GI50 (KM12) was > 100 µM (inactive). The GI50 (HOP-92) was > 100 µM (inactive), the GI50 (ACHN) was > 100 µM (inactive) and the GI50 (IGROV-1) was > 100 µM (inactive). The GI50 (RXF 393) was > 100 µM (inactive), the GI50 (DMS-114) was > 100 µM (inactive) and the GI50 (SR) was > 100 µM (inactive). The GI50 (SK-OV-3) was > 100 µM (inactive), the GI50 (TK-10) was > 100 µM (inactive) and the GI50 (COLO 205) was > 100 µM (inactive). The GI50 (M19-MEL) was > 100 µM (inactive), the GI50 (SN12C) was > 100 µM (inactive) and the GI50 (OVCAR-4) was > 100 µM (inactive). The GI50 (SK-MEL-28) was > 100 µM (inactive), the GI50 (UO-31) was > 100 µM (inactive) and the GI50 (CCRF-CEM) was > 100 µM (inactive). For the same molecule, the GI50 (Malme-3M) was > 100 µM (inactive), the GI50 (K562) was > 100 µM (inactive) and the GI50 (UACC-257) was > 100 µM (inactive). The GI50 (A498) was > 100 µM (inactive), the GI50 (SNB-78) was > 100 µM (inactive) and the GI50 (SK-MEL-5) was > 100 µM (inactive). The GI50 (SF-295) was > 100 µM (inactive), the GI50 (LOX IMVI) was > 100 µM (inactive) and the GI50 (SNB-19) was > 100 µM (inactive). The GI50 (NCI-H226) was > 100 µM (inactive), the GI50 (HT-29) was > 100 µM (inactive) and the GI50 (HOP-62) was > 100 µM (inactive). For the same molecule, the GI50 (XF498) was > 100 µM (inactive), the GI50 (NCI-H23) was > 100 µM (inactive) and the GI50 (NCI-H460) was > 100 µM (inactive). For the same molecule, the GI50 (SW-620) was > 100 µM (inactive), the GI50 (UACC-62) was > 100 µM (inactive) and the GI50 (A549) was > 100 µM (inactive). The GI50 (786-0) was > 100 µM (inactive), the GI50 (MOLT-4) was > 100 µM (inactive) and the GI50 (OVCAR-5) was > 100 µM (inactive). The GI50 (SF-539) was > 100 µM (inactive), the GI50 (CAKI-1) was > 100 µM (inactive) and the GI50 (EKVX) was > 100 µM (inactive). The GI50 (OVCAR-8) was > 100 µM (inactive).
